Laboratory results published in ChEMBL document CHEMBL5465560, “Selectivity Literature for EUbOPEN Chemogenomic Library” (2024).

Assays:
[1] = target: Mitogen-activated protein kinase 1 (Homo sapiens, UniProt P28482); conditions: at 10 µM
[2] = target: T1, Histone-lysine N-methyltransferase SUV39H1 (Homo sapiens) (UniProt O43463); experiment: Selectivity interaction (Methyltransferase screen (radiometric assays, panel of 8 PRMTs, 21 protein lysine methyltransferases, 3 DNA methyltransferases, and one RNA methyltransferase)) EUB0000272b SUV39H1
T1 sequence (whole entry): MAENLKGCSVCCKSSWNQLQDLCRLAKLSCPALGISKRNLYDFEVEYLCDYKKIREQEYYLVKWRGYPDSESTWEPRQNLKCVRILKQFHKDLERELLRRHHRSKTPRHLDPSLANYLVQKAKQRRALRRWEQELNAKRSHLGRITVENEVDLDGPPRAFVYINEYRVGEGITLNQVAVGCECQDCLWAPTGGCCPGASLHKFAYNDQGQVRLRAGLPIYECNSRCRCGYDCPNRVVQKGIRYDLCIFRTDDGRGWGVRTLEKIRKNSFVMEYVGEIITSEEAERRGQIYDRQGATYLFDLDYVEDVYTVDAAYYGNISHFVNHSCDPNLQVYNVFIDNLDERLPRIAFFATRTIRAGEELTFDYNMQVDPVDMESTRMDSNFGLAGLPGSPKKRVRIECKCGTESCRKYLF

[3] = target: T2, Cytoplasmic tyrosine-protein kinase BMX (Homo sapiens) (UniProt P51813); experiment: Selectivity interaction (KinomeScan (DiscoverX)) EUB0000666a BMX; conditions: at 10 µM
T2 sequence (whole entry): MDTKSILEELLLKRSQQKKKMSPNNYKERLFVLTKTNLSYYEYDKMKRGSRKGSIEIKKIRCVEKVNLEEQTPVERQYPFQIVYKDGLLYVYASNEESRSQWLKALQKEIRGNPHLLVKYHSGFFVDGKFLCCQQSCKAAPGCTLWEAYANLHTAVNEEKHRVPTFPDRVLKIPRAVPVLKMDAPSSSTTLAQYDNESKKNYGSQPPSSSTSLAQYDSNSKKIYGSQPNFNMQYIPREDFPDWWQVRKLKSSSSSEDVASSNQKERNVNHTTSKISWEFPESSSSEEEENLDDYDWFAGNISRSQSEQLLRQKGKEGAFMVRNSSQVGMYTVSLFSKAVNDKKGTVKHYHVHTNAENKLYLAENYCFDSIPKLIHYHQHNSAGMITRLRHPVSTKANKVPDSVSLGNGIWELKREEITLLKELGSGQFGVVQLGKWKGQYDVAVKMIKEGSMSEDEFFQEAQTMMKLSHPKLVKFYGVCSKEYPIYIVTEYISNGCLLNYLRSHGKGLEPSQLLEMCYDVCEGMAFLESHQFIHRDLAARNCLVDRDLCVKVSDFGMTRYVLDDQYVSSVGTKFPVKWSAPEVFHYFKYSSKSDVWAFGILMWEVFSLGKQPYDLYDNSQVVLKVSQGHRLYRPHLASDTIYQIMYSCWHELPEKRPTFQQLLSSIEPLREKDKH

[4] = target: Tyrosine-protein kinase JAK1 (Homo sapiens, UniProt P23458); experiment: Selectivity interaction (KinomeScan (DiscoverX)) EUB0000666a JAK1; conditions: at 10 µM
[5] = target: Serine/threonine-protein kinase B-raf (Homo sapiens) (UniProt P15056); experiment: Selectivity interaction (Kinase panel (Invitrogen)) EUB0000639a BRAF; conditions: at 200 nM
Sequence of Serine/threonine-protein kinase B-raf (Homo sapiens) (P15056 whole entry): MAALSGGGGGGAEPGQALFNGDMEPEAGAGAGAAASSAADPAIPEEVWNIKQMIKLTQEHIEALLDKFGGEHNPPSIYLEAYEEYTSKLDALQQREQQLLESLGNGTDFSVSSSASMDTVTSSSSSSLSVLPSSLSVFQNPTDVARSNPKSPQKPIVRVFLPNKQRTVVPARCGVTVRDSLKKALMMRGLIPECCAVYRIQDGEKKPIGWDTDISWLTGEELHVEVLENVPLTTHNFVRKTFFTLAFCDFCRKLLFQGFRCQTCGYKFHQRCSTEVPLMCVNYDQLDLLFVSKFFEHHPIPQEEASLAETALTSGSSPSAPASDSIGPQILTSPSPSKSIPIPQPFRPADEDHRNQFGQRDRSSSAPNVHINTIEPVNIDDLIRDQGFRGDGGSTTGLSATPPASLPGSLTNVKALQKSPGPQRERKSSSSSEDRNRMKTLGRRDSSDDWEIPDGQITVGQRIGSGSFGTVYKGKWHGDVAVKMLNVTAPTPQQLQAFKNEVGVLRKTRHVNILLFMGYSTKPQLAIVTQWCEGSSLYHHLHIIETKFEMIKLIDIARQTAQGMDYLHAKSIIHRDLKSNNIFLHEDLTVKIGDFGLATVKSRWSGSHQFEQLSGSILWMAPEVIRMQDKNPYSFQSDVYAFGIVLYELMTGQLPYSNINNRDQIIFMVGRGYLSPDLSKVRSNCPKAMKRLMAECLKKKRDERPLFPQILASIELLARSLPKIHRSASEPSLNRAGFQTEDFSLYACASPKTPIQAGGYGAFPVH

[6] = target: Phosphatidylinositol 4-kinase beta (Homo sapiens, UniProt Q9UBF8); experiment: Selectivity interaction (ActivX KiNativ screen (kinase selectivity in THP-1 cell lysates)) EUB0000639a PI4KB; format: subcellular; conditions: lysate, at 0.2 µM
Sequence of Phosphatidylinositol 4-kinase beta (Q9UBF8 2-816 limits assumed): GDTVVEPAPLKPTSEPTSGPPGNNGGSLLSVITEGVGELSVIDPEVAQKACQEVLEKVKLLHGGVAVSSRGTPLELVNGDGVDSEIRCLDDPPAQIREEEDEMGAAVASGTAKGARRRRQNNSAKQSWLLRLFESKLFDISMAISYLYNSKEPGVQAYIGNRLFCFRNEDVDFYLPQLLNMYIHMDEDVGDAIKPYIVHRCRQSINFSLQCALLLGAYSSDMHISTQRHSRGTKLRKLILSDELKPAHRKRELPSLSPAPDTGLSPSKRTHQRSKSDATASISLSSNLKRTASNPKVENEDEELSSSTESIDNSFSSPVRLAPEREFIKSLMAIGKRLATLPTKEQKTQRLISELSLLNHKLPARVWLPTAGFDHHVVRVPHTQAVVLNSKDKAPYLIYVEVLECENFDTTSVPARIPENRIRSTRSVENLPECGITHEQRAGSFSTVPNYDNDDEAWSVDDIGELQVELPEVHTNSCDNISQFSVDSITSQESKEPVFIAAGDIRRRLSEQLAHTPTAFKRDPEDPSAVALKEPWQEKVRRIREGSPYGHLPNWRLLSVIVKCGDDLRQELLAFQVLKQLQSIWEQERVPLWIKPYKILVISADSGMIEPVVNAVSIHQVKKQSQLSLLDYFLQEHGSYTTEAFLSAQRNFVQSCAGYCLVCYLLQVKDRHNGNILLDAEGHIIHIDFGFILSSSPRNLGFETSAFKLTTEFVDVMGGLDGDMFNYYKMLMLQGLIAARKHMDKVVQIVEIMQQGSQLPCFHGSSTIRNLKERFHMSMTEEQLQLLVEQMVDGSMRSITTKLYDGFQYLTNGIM

[7] = test system: Epidermal growth factor receptor (Homo sapiens), P00533 [G719C]; experiment: (§1) Selectivity interaction (KinomeScan (DiscoverX)) EUB0000607a EGFR; conditions: at 10 µM
Sequence of Epidermal growth factor receptor (Homo sapiens), P00533 [G719C] (P00533 whole entry G719C): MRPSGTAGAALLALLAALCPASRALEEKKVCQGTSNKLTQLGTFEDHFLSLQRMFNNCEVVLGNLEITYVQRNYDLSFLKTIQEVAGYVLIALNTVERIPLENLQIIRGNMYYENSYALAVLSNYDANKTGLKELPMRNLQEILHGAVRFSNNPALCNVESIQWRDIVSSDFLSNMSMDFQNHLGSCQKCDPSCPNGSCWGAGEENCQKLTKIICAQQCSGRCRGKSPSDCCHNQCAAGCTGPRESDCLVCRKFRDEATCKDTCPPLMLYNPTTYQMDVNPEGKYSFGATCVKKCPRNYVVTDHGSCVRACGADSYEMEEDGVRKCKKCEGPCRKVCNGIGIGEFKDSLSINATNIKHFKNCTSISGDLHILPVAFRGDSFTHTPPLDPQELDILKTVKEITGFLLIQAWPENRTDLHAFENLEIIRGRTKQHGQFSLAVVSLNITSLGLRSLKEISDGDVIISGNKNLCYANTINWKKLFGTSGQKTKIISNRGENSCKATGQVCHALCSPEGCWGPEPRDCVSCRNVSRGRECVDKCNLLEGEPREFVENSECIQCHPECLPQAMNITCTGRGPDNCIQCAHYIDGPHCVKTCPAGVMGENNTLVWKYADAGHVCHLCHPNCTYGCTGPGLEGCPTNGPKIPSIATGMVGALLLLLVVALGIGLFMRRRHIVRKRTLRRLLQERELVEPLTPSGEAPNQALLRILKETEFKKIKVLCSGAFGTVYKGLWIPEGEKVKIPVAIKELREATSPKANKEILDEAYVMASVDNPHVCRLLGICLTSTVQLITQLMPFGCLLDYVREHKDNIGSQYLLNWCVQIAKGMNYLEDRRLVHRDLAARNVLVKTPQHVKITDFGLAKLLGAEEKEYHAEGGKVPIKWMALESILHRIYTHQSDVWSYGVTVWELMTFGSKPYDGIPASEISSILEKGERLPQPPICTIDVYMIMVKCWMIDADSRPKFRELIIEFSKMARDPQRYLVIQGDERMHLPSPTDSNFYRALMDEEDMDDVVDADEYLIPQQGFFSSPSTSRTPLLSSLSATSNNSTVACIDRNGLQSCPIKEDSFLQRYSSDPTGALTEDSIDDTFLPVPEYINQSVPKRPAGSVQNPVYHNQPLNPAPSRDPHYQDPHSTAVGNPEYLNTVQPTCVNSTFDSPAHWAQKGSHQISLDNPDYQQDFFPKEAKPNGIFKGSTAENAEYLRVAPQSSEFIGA

[8] = target: Epidermal growth factor receptor (Homo sapiens, UniProt P00533); experiment: as §1; conditions: at 10 µM
[9] = test system: Epidermal growth factor receptor (Homo sapiens), P00533 [L858R,T790M]; experiment: as §1; conditions: at 10 µM
Sequence of Epidermal growth factor receptor (Homo sapiens), P00533 [L858R,T790M] (P00533 whole entry T790M/L858R, looked up): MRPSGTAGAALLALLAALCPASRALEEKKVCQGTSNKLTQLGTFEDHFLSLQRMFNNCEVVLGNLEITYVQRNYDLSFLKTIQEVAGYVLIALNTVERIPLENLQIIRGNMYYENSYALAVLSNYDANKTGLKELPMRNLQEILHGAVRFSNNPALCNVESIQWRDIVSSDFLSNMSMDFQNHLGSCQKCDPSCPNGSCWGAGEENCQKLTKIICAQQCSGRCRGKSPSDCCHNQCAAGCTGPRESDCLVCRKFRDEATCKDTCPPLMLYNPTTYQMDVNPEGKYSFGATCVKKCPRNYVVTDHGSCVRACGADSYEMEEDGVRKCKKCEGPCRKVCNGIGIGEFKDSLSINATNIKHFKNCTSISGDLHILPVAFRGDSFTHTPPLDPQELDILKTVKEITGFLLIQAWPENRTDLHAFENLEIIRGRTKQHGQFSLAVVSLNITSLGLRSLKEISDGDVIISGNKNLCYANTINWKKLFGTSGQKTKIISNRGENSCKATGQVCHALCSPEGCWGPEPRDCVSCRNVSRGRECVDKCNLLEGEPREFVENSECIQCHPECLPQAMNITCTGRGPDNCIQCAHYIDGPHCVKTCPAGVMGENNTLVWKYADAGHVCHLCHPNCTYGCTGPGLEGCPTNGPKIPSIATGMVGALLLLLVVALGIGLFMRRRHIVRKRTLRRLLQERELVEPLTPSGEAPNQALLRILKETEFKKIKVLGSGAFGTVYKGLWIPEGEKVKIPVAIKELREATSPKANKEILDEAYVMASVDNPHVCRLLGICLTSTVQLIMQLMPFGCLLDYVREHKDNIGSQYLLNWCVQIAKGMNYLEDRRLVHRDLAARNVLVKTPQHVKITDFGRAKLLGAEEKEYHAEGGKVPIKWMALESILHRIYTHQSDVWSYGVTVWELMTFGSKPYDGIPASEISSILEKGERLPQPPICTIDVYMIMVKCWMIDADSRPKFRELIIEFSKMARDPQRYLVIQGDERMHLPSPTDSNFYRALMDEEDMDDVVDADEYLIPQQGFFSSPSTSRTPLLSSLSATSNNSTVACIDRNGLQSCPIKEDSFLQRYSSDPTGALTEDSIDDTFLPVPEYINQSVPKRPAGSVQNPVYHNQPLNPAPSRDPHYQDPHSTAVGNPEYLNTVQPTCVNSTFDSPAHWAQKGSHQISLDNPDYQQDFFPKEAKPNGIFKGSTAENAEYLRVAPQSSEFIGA

[10] = target: T3, Interleukin-1 receptor-associated kinase 3 (Homo sapiens) (UniProt Q9Y616); experiment: Selectivity interaction (KinomeScan (DiscoverX)) EUB0000595a IRAK3; conditions: at 10 µM
T3 sequence (whole entry): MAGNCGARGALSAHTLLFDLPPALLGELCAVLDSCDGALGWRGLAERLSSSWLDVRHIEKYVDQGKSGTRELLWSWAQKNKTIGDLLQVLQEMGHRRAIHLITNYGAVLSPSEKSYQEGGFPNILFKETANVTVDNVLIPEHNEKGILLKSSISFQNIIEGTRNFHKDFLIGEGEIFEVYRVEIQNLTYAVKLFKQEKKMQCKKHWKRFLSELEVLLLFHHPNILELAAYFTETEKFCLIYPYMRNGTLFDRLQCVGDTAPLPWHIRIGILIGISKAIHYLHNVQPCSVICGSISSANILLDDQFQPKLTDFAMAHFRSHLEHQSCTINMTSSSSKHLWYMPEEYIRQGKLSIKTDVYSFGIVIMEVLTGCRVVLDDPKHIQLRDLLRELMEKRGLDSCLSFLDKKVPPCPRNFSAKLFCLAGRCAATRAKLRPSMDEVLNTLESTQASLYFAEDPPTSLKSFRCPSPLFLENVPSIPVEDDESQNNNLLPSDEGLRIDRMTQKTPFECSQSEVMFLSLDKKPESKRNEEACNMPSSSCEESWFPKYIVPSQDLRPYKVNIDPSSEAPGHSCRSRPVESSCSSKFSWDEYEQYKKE

[11] = target: Gamma-aminobutyric acid type B receptor subunit 1 (Homo sapiens) (UniProt Q9UBS5); experiment: Selectivity interaction (Eurofins CEREP Diversity Profile (receptors and ion channels)) EUB0000279b GABBR1; conditions: at 10 µM
Sequence of Gamma-aminobutyric acid type B receptor subunit 1 (Homo sapiens) (Q9UBS5 whole entry): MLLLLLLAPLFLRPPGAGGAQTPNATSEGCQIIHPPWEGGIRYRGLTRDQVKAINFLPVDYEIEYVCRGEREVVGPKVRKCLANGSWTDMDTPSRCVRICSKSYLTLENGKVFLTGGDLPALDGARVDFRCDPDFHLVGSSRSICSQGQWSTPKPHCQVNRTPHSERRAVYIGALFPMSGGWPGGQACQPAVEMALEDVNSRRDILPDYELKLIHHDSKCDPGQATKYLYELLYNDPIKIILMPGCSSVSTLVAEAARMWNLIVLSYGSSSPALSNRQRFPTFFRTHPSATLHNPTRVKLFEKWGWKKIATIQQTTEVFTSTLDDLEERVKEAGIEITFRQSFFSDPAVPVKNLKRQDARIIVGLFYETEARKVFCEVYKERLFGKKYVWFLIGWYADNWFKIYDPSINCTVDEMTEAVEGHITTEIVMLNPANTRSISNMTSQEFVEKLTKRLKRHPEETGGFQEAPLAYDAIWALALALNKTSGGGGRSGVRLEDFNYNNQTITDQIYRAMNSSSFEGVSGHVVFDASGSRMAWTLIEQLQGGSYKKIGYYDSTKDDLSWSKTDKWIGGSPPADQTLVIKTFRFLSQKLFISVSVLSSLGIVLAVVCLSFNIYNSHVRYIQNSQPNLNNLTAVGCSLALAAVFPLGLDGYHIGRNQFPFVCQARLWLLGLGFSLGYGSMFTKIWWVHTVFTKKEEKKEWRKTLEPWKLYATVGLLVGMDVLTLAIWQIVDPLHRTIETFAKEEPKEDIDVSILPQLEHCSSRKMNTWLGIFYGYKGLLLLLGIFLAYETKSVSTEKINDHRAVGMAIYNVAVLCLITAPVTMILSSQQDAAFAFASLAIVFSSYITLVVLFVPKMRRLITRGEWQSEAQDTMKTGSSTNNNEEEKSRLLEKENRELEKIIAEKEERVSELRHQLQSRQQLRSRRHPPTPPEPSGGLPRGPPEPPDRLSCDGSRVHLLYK

[12] = target: T4, Serine/threonine-protein kinase Sgk3 (Homo sapiens) (UniProt Q96BR1); experiment: Selectivity interaction (Kinase screening (Nanosyn)) EUB0000604a SGK3
T4 sequence (whole entry): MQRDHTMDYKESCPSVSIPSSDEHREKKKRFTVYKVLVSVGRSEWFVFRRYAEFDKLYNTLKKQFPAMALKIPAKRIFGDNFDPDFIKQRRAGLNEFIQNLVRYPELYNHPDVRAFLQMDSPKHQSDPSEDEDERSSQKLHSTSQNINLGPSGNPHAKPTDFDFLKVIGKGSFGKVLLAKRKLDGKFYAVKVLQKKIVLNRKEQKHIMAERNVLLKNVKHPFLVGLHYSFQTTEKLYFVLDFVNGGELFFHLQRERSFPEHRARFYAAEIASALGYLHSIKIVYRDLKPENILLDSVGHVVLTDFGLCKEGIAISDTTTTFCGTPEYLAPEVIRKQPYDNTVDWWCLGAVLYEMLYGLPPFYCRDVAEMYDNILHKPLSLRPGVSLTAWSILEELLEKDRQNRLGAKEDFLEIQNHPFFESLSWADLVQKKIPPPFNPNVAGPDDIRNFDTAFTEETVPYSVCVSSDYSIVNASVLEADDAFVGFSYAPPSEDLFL

[13] = target: Fibroblast growth factor receptor 4 (Homo sapiens, UniProt P22455); experiment: Selectivity interaction (KinomeScan (DiscoverX)) EUB0001619a FGFR4; conditions: at 1 µM

In the case of `CCN(CC)CCCCNc1ncc2cc(-c3cc(OC)cc(OC)c3)c(NC(=O)NC(C)(C)C)nc2n1`, the % of control [1] is reported as 100%.

`Cc1cc(C)cc([C@H]2c3cc(C)ccc3NC(=O)CN2C(=O)c2ccc(Br)s2)c1` gave a % of activity ([2]; at 1 µM) of 100% and a % of activity ([2]; at 10 µM) of 96.7%.

Molecule `O=C(NOC[C@H](O)CO)c1ccc(F)c(F)c1Nc1ccc(I)cc1F` has a % of control [3] of 92% and a % of control [4] of 78%.

In the case of `CC[C@@H]1[C@H](F)C(=O)N[C@@H]1COc1nccc2cc(C(N)=O)c(OC)cc12` [ZIMLOVISERTIB], the % of inhibition [5] is reported as 0.492% and the % of inhibition [6] is reported as -16.4%.

For `CNC(=O)Nc1ccc(-c2nc(N3CC4CCC(C3)O4)c3cnn(C4CCC5(CC4)OCCO5)c3n2)cc1`, the % of control [7] was 80%, the % of control [8] was 62% and the % of control [9] was 100%.

`COCC(=O)NC/C=C/c1ccc2ncnc(Nc3ccc(Oc4ccc(C)nc4)c(C)c3)c2c1` [CP-724714] gave a % of control [10] of 82%.

With `CC(=O)c1cc(-c2ccccc2OCC2CC2)c2ncccn12` the % of control [11] was 100%.

In the case of `Cc1cnc(Nc2ccc(F)cc2Cl)nc1-c1c[nH]c(C(=O)N[C@H](CO)c2cccc(Cl)c2)c1`, the % of inhibition [12] is reported as 2%.

`N#Cc1cccc(-c2c[nH]c3ncnc(N4CCOCC4)c23)c1` gave a % of control [13] of 74%.
